Results: PubChem BioAssay (NCI)
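48-hour exposure; five concentrations; linearly interpolated endpoints. Here, GI50 denotes the concentration required for 50% inhibition of growth. TGI is the concentration that stops growth completely.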

Columns and labels:
Experiment in all cases: NCI tumour cell line growth inhibition, 48 h
[1] = test system: SNB-75 CNS
[2] = test system: KM12 colon
[3] = test system: NCI-H522 lung
[4] = test system: OVCAR-3 ovarian
[5] = test system: NCI-H23 lung
[6] = test system: HS 578T breast
[7] = test system: OVCAR-5 ovarian
[8] = test system: MALME-3M melanoma
[9] = test system: HCT-116 colon
[10] = test system: SR leukemia

Compound | GI50 [1] | TGI [1] | GI50 [2] | TGI [2] | GI50 [3] | TGI [3] | GI50 [4] | TGI [4] | GI50 [5] | TGI [5] | GI50 [6] | TGI [6] | GI50 [7] | TGI [7] | GI50 [8] | TGI [8] | GI50 [9] | TGI [9] | GI50 [10] | TGI [10]
C1=C(c2ccccc2)C(c2ccc(OCCN3CCCCC3)cc2)Oc2ccccc21 (centres undefined) | 1.6 µM | 3.44 µM | 1.74 µM | 3.29 µM | 1.59 µM | 3.37 µM | 1.88 µM | 4.14 µM | 2.29 µM | 6.3 µM | 2.18 µM | 5.23 µM | 1.61 µM | 3.29 µM | 1.73 µM | 3.48 µM | 1.7 µM | 3.07 µM | 1.93 µM | 3.94 µM
C[C@@H](Oc1ccc2[nH]nc(/C=C/c3cnn(CCO)c3)c2c1)c1c(Cl)cncc1Cl | 0.159 µM | 0.561 µM | < 0.01 µM | 5.87 µM | 0.572 µM | 2.49 µM | 0.462 µM | 3.56 µM | 0.0796 µM | 2.18 µM | 0.106 µM | 0.681 µM | 0.166 µM | 2.29 µM | 1.86 µM | 4.68 µM | 0.082 µM | > 100 µM | 0.0208 µM | 1.1 µM
CS(=O)(=O)CCn1c(=O)c(Oc2ccc(F)cc2F)cc2cnc(NC3CCOCC3)nc21 | > 25 µM | > 25 µM | > 25 µM | > 25 µM | > 25 µM | > 25 µM | > 25 µM | > 25 µM | > 25 µM | > 25 µM | > 25 µM | > 25 µM | > 25 µM | > 25 µM | > 25 µM | > 25 µM | > 25 µM | > 25 µM | > 25 µM | > 25 µM
CC(=O)/C=C/C1=C(c2cccs2)c2ccccc2CC1 | 25.6 µM | 68.1 µM | 25.2 µM | 56.2 µM | 25.1 µM | 66.8 µM | 29.7 µM | 63.6 µM | 34.3 µM | > 100 µM | 29.5 µM | 98.6 µM | 60.7 µM | > 100 µM | 28.3 µM | 54.9 µM | 37.6 µM | > 100 µM | 23.6 µM | 51.8 µM
NCCP(=O)(O)O | – | > 100 µM | – | > 100 µM | – | > 100 µM | – | > 100 µM | – | > 100 µM | – | > 100 µM | – | > 100 µM | – | > 100 µM | – | > 100 µM | – | > 100 µM
C/C1=C/C(=O)O[C@@H]2C[C@@H](CC[C@H](C)/C=C\C=C\CC1)O[C@@](OCCc1ccccc1)([C@@H]1CSC(=O)N1)C2 | 0.022 µM | 0.0597 µM | 6.19 µM | > 17.5 µM | 0.0581 µM | 2.47 µM | 0.17 µM | 0.607 µM | 0.142 µM | > 17.5 µM | 0.028 µM | 0.0973 µM | 0.0554 µM | > 17.5 µM | 0.0694 µM | 0.943 µM | 0.225 µM | > 17.5 µM | 0.379 µM | > 17.5 µM
O=C(CNc1ncco1)Nc1ccc(S(=O)(=O)c2ccc(NC(=O)CNc3ncco3)cc2)cc1 | 6.04 µM | 20.7 µM | 1.74 µM | 3.43 µM | 1.48 µM | 3.14 µM | 1.63 µM | 3.71 µM | 2.46 µM | 9.51 µM | 14.3 µM | > 100 µM | 2.03 µM | 4.13 µM | 2.12 µM | 4.56 µM | 1.42 µM | 2.98 µM | 2.36 µM | 5.35 µM
COc1ccc(-c2nnc(N3CCN(C(=O)CN4CCN(c5ccc(Cl)cc5)CC4)CC3)nc2-c2ccc(OC)cc2)cc1 | 19.5 µM | 65.3 µM | 8.5 µM | > 100 µM | 22.4 µM | > 100 µM | 28.7 µM | > 100 µM | 24.4 µM | > 100 µM | 23.5 µM | > 100 µM | > 100 µM | > 100 µM | 21.5 µM | > 100 µM | 5.99 µM | > 100 µM | 31.5 µM | > 100 µM
CNC(=O)OC1C(O[C@H]2C[C@H]3[C@@H]4CC=C5C[C@@H](O)CC[C@]5(C)[C@H]4CC[C@]3(C)[C@H]2[C@H](C)C(=O)CCC(C)C)OCC(O)C1OC1OCC(O)C(O)C1OC(=O)c1ccc(OC)cc1 (some centres undefined) | 0.00628 µM | 4.97 µM | 0.106 µM | 4.97 µM | 0.0314 µM | 0.271 µM | 1.03 µM | 6.1 µM | 0.134 µM | 4.59 µM | < 0.00275 µM | 0.0584 µM | 0.235 µM | 5.01 µM | 0.0517 µM | 2.33 µM | 0.0129 µM | 3.11 µM | 0.0112 µM | 3.22 µM
O=C(Nc1ccccc1O)c1ccc(CNC(=O)c2sccc2Nc2ccnc(C(F)(F)F)c2)cc1 | 4.96 µM | 44.5 µM | 12.2 µM | 32 µM | 5.06 µM | 27.7 µM | 7.48 µM | 21.6 µM | 5.73 µM | 41.2 µM | 12.7 µM | > 100 µM | 5.9 µM | 24.6 µM | 2.5 µM | 21.5 µM | 4.61 µM | 15.2 µM | 4.19 µM | 61.4 µM
O=S(=O)(NCCNc1cc(-c2cn(-c3ccccc3)nc2-c2cccc(O)c2)ccn1)c1ccc(Cl)cc1 | 3.28 µM | 20.4 µM | 2.63 µM | 9.62 µM | 2.16 µM | 5.79 µM | 2.06 µM | 5.05 µM | 3.07 µM | 13.4 µM | 3 µM | > 100 µM | 2.66 µM | 11 µM | 2.16 µM | 5.47 µM | 2.69 µM | 11.4 µM | 1.71 µM | 5.07 µM
Cc1ccc(C2C3=C(N=c4s/c(=C/c5ccc(Br)cc5)c(=O)n42)c2ccc4ccccc4c2OCC3)cc1 (centres undefined) | > 100 µM | > 100 µM | > 100 µM | > 100 µM | > 100 µM | > 100 µM | > 100 µM | > 100 µM | > 100 µM | > 100 µM | > 100 µM | > 100 µM | > 100 µM | > 100 µM | 54.9 µM | > 100 µM | > 100 µM | > 100 µM | > 100 µM | > 100 µM
O=[N+]([O-])c1ccc(/C=C(/c2ccc([N+](=O)[O-])o2)S(=O)(=O)c2ccccc2)o1 | – | 33.7 µM | – | 32.6 µM | – | 4.21 µM | – | 29 µM | – | 38 µM | – | 44.3 µM | – | 33.9 µM | – | 7.45 µM | – | 3.08 µM | – | 2.6 µM
COc1ccc(CC(NC(=O)[C@H](C)NC(=O)CN2CCOCC2)C(=O)N[C@@H](Cc2ccccc2)C(=O)[C@@]2(C)CO2)cc1 (some centres undefined) | 0.175 µM | 0.427 µM | 0.162 µM | 0.338 µM | 0.278 µM | 0.908 µM | 0.198 µM | 0.421 µM | 0.196 µM | 0.695 µM | 0.286 µM | 2.12 µM | 0.272 µM | 1.19 µM | 0.281 µM | 1.41 µM | 0.181 µM | 0.49 µM | 0.064 µM | –
Cc1cc(C)n(C(=O)c2nn(-c3ccc(Cl)cc3)cc2O)n1 | 3.52 µM | 73.1 µM | 5.07 µM | > 100 µM | 7.37 µM | 50.7 µM | 12.7 µM | 87.7 µM | 3.31 µM | > 100 µM | 3.21 µM | > 100 µM | 4.98 µM | > 100 µM | 4.59 µM | 57.6 µM | 3.42 µM | 48.2 µM | > 100 µM | > 100 µM
